These are literature values, as cited in paper PMC8728392, “Synthesis, Anticancer Assessment, and Molecular Docking of Novel Chalcone-Thienopyrimidine Derivatives in HepG2 and MCF-7 Cell Lines” (Oxidative Medicine and Cellular Longevity, 2021).

A word on the IC50: it is the point on the concentration scale where inhibition reaches its midpoint.

Data set [1] has as its system Bcl-2 16me. The arrangement: method as in PMID 19027294. The conditions noted are these: cited from earlier work.
The subject of data set [2] is Bcl-2 26me. Details: method as in PMID 19027294. Particulars: cited from earlier work.

SMILES strings stand for the structures.

As to `Cc1c(Cl)c(C(=O)N(c2ccccc2)c2ccccc2)nn1-c1ccccc1C(=O)N1Cc2ccccc2CC1CN` (centres unmarked) [DRO], the IC50 is 30 nM in data set [1] and 100 nM in data set [2].
